Assay results from PMC12514245, “Impaired migration and lung invasion of human melanoma by a novel small molecule targeting the transmembrane domain of death receptor p75^NTR” (EMBO Molecular Medicine, 2025).
Values joined by “and” are separate entries in the source; they are usually repeats but may differ in a detail not shown here. Equal entries are not always repeated.

Assays:
[1] = biological target: T1, fascin/p75^NTR interaction (Homo sapiens, UniProt P08138); test: Co-immunoprecipitation of fascin with p75NTR in A875 cells; format: cell-based; conditions: 1 μM; NGF 100 ng/ml
T1 construct: endogenous in cells; host or cells: A875-NT (and A875 sh-p75NTR knock-down control)
T1 sequence (P08138 29-427): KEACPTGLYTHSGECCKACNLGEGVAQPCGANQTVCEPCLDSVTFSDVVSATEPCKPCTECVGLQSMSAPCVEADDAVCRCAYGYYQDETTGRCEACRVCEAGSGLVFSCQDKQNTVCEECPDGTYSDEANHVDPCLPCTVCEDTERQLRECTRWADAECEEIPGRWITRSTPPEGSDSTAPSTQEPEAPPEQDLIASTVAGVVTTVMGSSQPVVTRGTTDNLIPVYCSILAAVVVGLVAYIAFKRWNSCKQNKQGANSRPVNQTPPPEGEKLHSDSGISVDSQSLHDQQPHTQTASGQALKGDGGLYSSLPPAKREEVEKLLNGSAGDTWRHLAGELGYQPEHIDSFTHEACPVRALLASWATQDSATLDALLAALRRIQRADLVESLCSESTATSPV
Description: For co-immunoprecipitation analysis of p75^NTR/fascin interactions, A875 sh-p75^NTR and A875-NT cells were plated in a 10 cm tissue culture dish at a confluency of 3 × 10^6 cells/dish in normal growth media. Twenty-four hours after plating, the cells were treated with 1 μM 4A22 and NGF (100 ng/ml) for 12 h prior to harvest and lysis in lysis buffer (50 mM Tris/HCl pH 7.5, 1 mM EDTA, 270 mM Sucrose, 1% (v/v) Triton X-100, 0.1% (v/v) 2-mercaptoethanol and 60 mM n-Octyl-β-D glucopyranoside) containing protease inhibitor cocktail. The cellular extracts were then centrifuged at 4 °C top speed on a benchtop centrifuge for 1 min and the supernatant was collected. For immunoprecipitation, A875 cell extracts were incubated for 16 h at 4 °C on a rotating wheel with 0.8 μg of anti-p75^NTR antibody (ANT-007, Alomone) and then incubated with Sepharose protein-G beads (GE Healthcare). The beads were collected by brief centrifugation (2 min, 2500 rpm, 4 °C), washed three times with 1 ml of Wash Buffer (with composition same as the lysis buffer). After the last wash, pelleted beads were aspirated off the wash buffer followed by addition of Laemmli sample buffer and analysis by SDS–PAGE followed by Western Blot using anti-fascin antibody (MA5-11483, Invitrogen).

[2] = test system: A875-NT melanoma xenograft; test: Melanoma lung invasion assay, A875-NT, treatment from one day before cell injection; format: in vivo, SCID mice; conditions: for Photons/second/ mouse/week, Average: group average; for Photons/second/ mouse/week: single mouse
Description: Next, to assess the potential inhibitory effects of Np75-4A22 on melanoma cell migration and tissue invasion in vivo, we utilized the highly metastatic human A875 xenograft model. […] Initially, to mimic metastatic dissemination from the primary tumor site, A875-NT or A875-shp75 cells expressing GFP-Luc (for live-monitoring of tumor growth) were injected intravenously in female SCID mice 24 h following a single oral administration of Np75-A422 (200 mg/kg) or drug vehicle alone. Mice received 3 cycles of Np75-A422 (200 mg/kg/day) following a 5 day on and 2 days off drug schedule for a total of 3 weeks (Fig. 8A). Metastatic spread to the lungs was monitored weekly by luciferase activity using the Xenogen IVIS-200 Optical in vivo luciferase imaging system and mice were sacrificed after the third week. […] In addition, assessment of the metastatic spread was also quantified by histological assessment of non-consecutive lung sections stained for human nucleolin to detect the tumor cells. […] In addition, and as expected, high expression of p75^NTR was detected in lung tumors established by A875-NT cells but was negligible in tumors derived from A875-shp75 cells (Fig. EV10).
Eight-week-old female SCID mice (Charles River Laboratories, Shrewsbury, MA, USA) were housed in groups of three to five and maintained on a 12-h light/dark schedule with a temperature of 22 °C ± 1 °C and a relative humidity of 50% ± 5%. Food and water were available ad libitum. This research study was reviewed and approved by the University of Calgary Animal Care Committee (AC22-0054) and McGill University (AUP-JGH-8269) and adheres to established ethical principles and guidelines. A875-GFPLuc (A875-NT) or A875-GFPLuc shp75 (A875-shp75) cells harvested using Puck’s EDTA were resuspended in PBS and injected intravenously into SCID mice (5 × 10^5 cells/200 μl per mouse). Np75-4A22 was dissolved in 0.5% sodium carboxymethyl cellulose (NaCMC) in reverse osmosis H2O and administered by oral gavage at 200 mg/kg/day starting one day prior to intravenous (tail vein) injection of tumor cells and continued for 3 1-week cycles (cycle: 5 days on drug, 2 days off drug). Tumor spread to the lung was monitored weekly by luciferase activity using the Xenogen IVIS-200 Optical in vivo luciferase imaging system as described previously (Lun et al, [2016]) and by immunohistochemistry (IHC) at designated time points. IHC was performed after formalin fixation, paraffin embedding and sectioning of the lungs, using a human-specific mouse polyclonal nucleolin antibody (1:500 dilution) and detected using Dako liquid DAB+ Substrate Chromogen System (Dako: k3468, California, USA) followed by a hematoxylin counterstain (Sigma, Oakville, ON, Canada). Sections were mounted and imaged on an Olympus phase contrast microscope (Olympus Life Science, Tokyo, Japan). For immunofluorescence, sections were stained with anti-human nucleolin and anti-human p75NTR antibodies (1:1000 dilution), subsequently detected with 1:200 dilutions of Alexa Fluor™ 488 Goat anti-Mouse IgG (H + L) Highly Cross-Adsorbed Secondary Antibody and Alexa Fluor™ 568 Goat anti-Rabbit IgG (H + L) Cross-Adsorbed Secondary Antibody. Sections were further stained with DAPI to detect all nuclei. Between each treatment, TBS Automation Wash Buffer (Biocare Medical TWB945M) was employed. Images were taken with LSM800 confocal microscope and ZEN system.

Cc1cccc(-c2cncc(Nc3ccc(Br)c(Cl)c3Cl)n2)c1C [Np75-4A22]
NGF-stimulated fascin/p75NTR interaction [1]: completely suppressed the effect of NGF
Photons/second/ mouse/week, Average ([2]; A875-NT, 1wk): 9.39E+04 Photons/second
Photons/second/ mouse/week ([2]; A875-NT, 1wk): 8.62E+04 Photons/second and 1.03E+05 Photons/second and 1.11E+05 Photons/second and 1.02E+05 Photons/second and 1.26E+05 Photons/second and 1.23E+05 Photons/second and 7.03E+04 Photons/second and 6.52E+04 Photons/second and 7.29E+04 Photons/second and 7.98E+04 Photons/second
Photons/second/ mouse/week, Average ([2]; A875-NT, 2wks): 1.01E+05 Photons/second
Photons/second/ mouse/week ([2]; A875-NT, 2wks): 9.63E+04 Photons/second and 1.02E+05 Photons/second and 1.27E+05 Photons/second and 8.86E+04 Photons/second and 1.04E+05 Photons/second and 1.23E+05 Photons/second and 9.01E+04 Photons/second and 9.59E+04 Photons/second and 8.45E+04 Photons/second and 9.64E+04 Photons/second
Photons/second/ mouse/week ([2]; A875-NT, 3wks): 1.77E+05 Photons/second and 1.53E+05 Photons/second and 2.03E+05 Photons/second and 2.34E+05 Photons/second and 2.96E+05 Photons/second and 2.73E+05 Photons/second and 1.26E+05 Photons/second and 2.18E+05 Photons/second and 2.30E+05 Photons/second and 1.32E+05 Photons/second
Metastatic Nodules/Lung Section, Average ([2]; A875-NT, average of 5 non-consecutive slides per individual mouse): 0.6 and 0.2 and 0.4 and 1 and 0
Cancer Cells/Lung Section, Average per mouse ([2]; A875-NT, average of 5 slides of one mouse): 5.4 and 2 and 18.4 and 8 and 21.4 and 2.2 and 0
Cancer Cells/Lung Section, group Average ([2]; A875-NT, average of all mice): 6.16
Metastatic Nodules/Lung Section, group Average ([2]; A875-NT, average over all mice of the group): 0.36
Metastatic Nodules/Lung Section, Slide 1 ([2]; A875-NT, individual mouse, slide 1 of 5 non-consecutive slides/mouse): 0 and 1
Metastatic Nodules/Lung Section, Slide 2 ([2]; A875-NT, individual mouse, slide 2 of 5 non-consecutive slides/mouse): 1 and 0
Metastatic Nodules/Lung Section, Slide 3 ([2]; A875-NT, individual mouse, slide 3 of 5 non-consecutive slides/mouse): 0 and 1
Metastatic Nodules/Lung Section, Slide 4 ([2]; A875-NT, individual mouse, slide 4 of 5 non-consecutive slides/mouse): 0 and 1 and 2
Metastatic Nodules/Lung Section, Slide 5 ([2]; A875-NT, individual mouse, slide 5 of 5 non-consecutive slides/mouse): 2 and 1 and 0
lung tumors (luciferase imaging) ([2]; oral 200 mg/kg/day, 3 cycles 5 days on/2 days off): dramatic reduction of lung tumors
lung tumors by histology (human nucleolin; cancer cells and lesions) ([2]; oral 200 mg/kg/day, 3 weeks): marked reduction
